From patent US20130109703A1, “Combination of a GPR119 Agonist and the DPP-IV Inhibitor Linagliptin for Use in the Treatment of Diabetes and Related Conditions” (Boehringer Ingelheim International GmbH, priority 2010, published 2013)

Experiments:
[1] = system: Zucker Diabetic Fatty (ZDF) rats (ZDF/Crl-Lepr^fa); test: Oral glucose tolerance test in overnight fasted 9-weeks old male ZDF rats; assay type: in vivo, rat; details: 1st Example, FIG. 1; single oral dose 30 min before oral glucose load 2 g/kg; Cpd. A 3 mg/kg, Cpd. B 100 mg/kg, combination at the same doses; versus vehicle
Protocol: (§1) According to a first example an oral glucose tolerance test is performed in overnight fasted 9-weeks old male Zucker Diabetic Fatty (ZDF) rats (ZDF/Crl-Lepr^fa). A pre-dose blood sample is obtained by tail bleed. Blood glucose is measured with a glucometer, and the animals are randomized for blood glucose (n=5/group). […] The animals receive an oral glucose load (2 g/kg) 30 min after compound administration. Blood glucose is measured in tail blood 15 min, 30 min, 60 min, and 90 min after the glucose challenge. Glucose excursion is quantified by calculating the reactive glucose AUC. The data are presented as mean±SEM. The two-sided unpaired Student t-test is used for statistical comparison of the control group and the active groups as well as between active groups.

[2] = system: Zucker Diabetic Fatty (ZDF) rats (ZDF/Crl-Lepr^fa); test: Oral glucose tolerance test in overnight fasted 15-weeks old male ZDF rats (highly insulin-resistant model); assay type: in vivo, rat; details: single oral dose 30 min before oral glucose load 2 g/kg, Cpd. A 3 mg/kg, combination at the same doses, versus vehicle
Protocol: as §1, with “to a second example an” for “to a first example an”, “overnight fasted 15-weeks old male” for “overnight fasted 9-weeks old male”, “rats (ZDF/Crl-Lepr^fa). This aged ZDF rats serve as a highly insulin-resistant animal model. A pre-dose” for “rats (ZDF/Crl-Lepr^fa). A pre-dose”, “tail blood 30 min,” for “tail blood 15 min, 30 min,”, “60 min, 90 min, 120 min, and 180” for “60 min, and 90”, “min, and 180 min after” for “min, and 90 min after”

[3] = Excretion route of BI 1356 at therapeutic oral dose levels; assay type: in vivo

Question: For CC#CCn1c(N2CCC[C@@H](N)C2)nc2c1c(=O)n(Cc1nc(C)c3ccccc3n1)c(=O)n2C [Cpd. A, 1-[(4-methyl-quinazolin-2-yl)methyl]-3-methyl-7-(2-butyn-1-yl)-8-(3-(R)-amino-piperidin-1-yl)-xanthine], which “reduction of glucose excursion (reactive glucose AUC)” value (shortened to “reduction of glucose excursion”) [1] is on record?
Answer: 49%

Question: And the “reduction of glucose excursion” value ([2]; 2nd Example, FIG. 2, Cpd. B 30 mg/kg)?
Answer: 1%

Question: And the “reduction of glucose excursion” value ([2]; 3rd Example, FIG. 3, Cpd. B 10 mg/kg)?
Answer: 1%

Question: And the “excretion via the kidney” value [3]?
Answer: < 7 % of the administered oral dose
